Experiment [1] has as its target BRD4-BD12 (1-477) (Homo sapiens (Human), UniProt O60885). The experiment can be described thus: Alphascreen binding assay BRD4-BD12. Conditions: BRD4(1 2) H4; read-out: Biochemical activity (IC50 μM) BRD4(1 2) H4. Summed up: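 In this competition format, compounds displace a biotinylated tetra-acetyl H4 peptide from E. coli-expressed human BRD4 bromodomain constructs captured on nickel chelate beads. The reaction runs at pH 7.5 with 2 mM DTT and detergent for 1 h at room temperature before a 30 min bead step.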
(Alpha assays give light when donor and acceptor beads are brought close together.)

Experiment [2] has as its system MV-4-11 cells. Kind of experiment: Oncology cell growth assay MV-4-11 (CellTiter Glo). Type of experiment: cell-based. Conditions: Homo sapiens, MV4-11, 72 h, read-out: Cell activity (IC50 μM) MV-4-11 3d-Growth. A digest of the protocol: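 Growth read by CellTiter Glo luminescence after 72 h compound treatment of MLL-AF4-bearing MV-4-11 cells (3000/well). Titration: 8 points, 1:3 steps, maximum 10 μM, 0.2% DMSO final. Data normalized to DMSO wells, four-parameter fit gives pIC50.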
A general note: Cellular ATP, detected with luciferase, serves as a proxy for viable cell number.

The subject of experiment [3] is bromodomain. The experiment can be described thus: at least one of the bromodomain cell assays of Example 57. Format: cell-based. Conditions: at least one of the bromodomain cell assays described in Example 57; read-out: IC50 in at least one of the bromodomain cell assays.

Like-named read-outs stand apart in the source and are kept apart here.

One may read the IC50 as the concentration at which inhibition is half-maximal. For `Cc1noc(C)c1-c1cnc2c(I)cn(CC3CCC(F)(F)CC3)c2c1` [P-0250, 4-[1-[(4,4-difluorocyclohexyl)methyl]-3-iodo-pyrrolo[3,2-b]pyridin-6-yl]-3,5-dimethyl-isoxazole], the IC50 in experiment [1] was below 1 µM; in experiment [2], below 1 µM; in experiment [3] it was below 10000 nM.
Take `Cc1noc(C)c1-c1cnc2c(I)cn(C(CC#N)C3CCCC3)c2c1` (stereo not shown) [P-0251, 3-cyclopentyl-3-[6-(3,5-dimethylisoxazol-4-yl)-3-iodo-pyrrolo[3,2-b]pyridin-1-yl]propanenitrile]: the figures for the IC50 in experiment [1], in experiment [2] and in experiment [3] were below 1 µM, below 1 µM and below 10000 nM, respectively.
Consider `Cc1noc(C)c1-c1cnc2c(-c3cnn(C(F)F)c3)cn(C(CC#N)C3CCCC3)c2c1` (stereo not shown) [P-0252, 3-cyclopentyl-3-[3-[1-(difluoromethyl)pyrazol-4-yl]-6-(3,5-dimethylisoxazol-4-yl)pyrrolo[3,2-b]pyridin-1-yl]propanenitrile], for which the concentration for half-maximal inhibition (IC50) in experiment [1] is below 1 µM; in experiment [2], below 1 µM; in experiment [3], below 10000 nM.
For `Cc1noc(C)c1-c1cnc2c(-c3cnn(CC(F)(F)F)c3)cn(CC3CCC(F)(F)CC3)c2c1` [P-0253, 4-[1[(4,4-difluorocyclohexyl)methyl]-3-[1-(2,2,2-trifluoroethyl)pyrazol-4-yl]pyrrolo[3,2-b]pyridin-6-yl]-3,5-dimethyl-isoxazole], the IC50 in experiment [1] was below 1 µM; in experiment [2] it was below 1 µM; in experiment [3], below 10000 nM.
For the compound `[2H]C([2H])(C1CC(F)(F)C1)n1cc(I)c2ncc(-c3c(C)noc3C)cc21` [P-0254, 4-[1-[dideuterio-(3,3-difluorocyclobutyl)methyl]-3-iodo-pyrrolo[3,2-b]pyridin-6-yl]-3,5-dimethyl-isoxazole], the half-maximal inhibitory concentration (IC50) in experiment [1] was below 1 µM; in experiment [2] it was below 1 µM; in experiment [3], below 10000 nM.
With `[2H]C([2H])(C1CC(F)(F)C1)n1cc(-c2cn[nH]c2)c2ncc(-c3c(C)noc3C)cc21` [P-0255, 4-[1-[dideuterio-(3,3-difluorocyclobutyl)methyl]-3-(1H-pyrazol-4-yl)pyrrolo[3,2-b]pyridin-6-yl]-3,5-dimethyl-isoxazole], the figures for the half-inhibitory concentration (IC50) in experiment [1], in experiment [2] and in experiment [3] were below 1 µM, below 1 µM and below 10000 nM, respectively.
With `[2H]C([2H])(C1CC(F)(F)C1)n1cc(-c2cnn(C(F)F)c2)c2ncc(-c3c(C)noc3C)cc21` [P-0256, 4-[1-[dideuterio-(3,3-difluorocyclobutyl)methyl]-3-[1-(difluoromethyl)pyrazol-4-yl]pyrrolo[3,2-b]pyridin-6-yl]-3,5-dimethyl-isoxazole], the results for the IC50 in experiment [1], in experiment [2] and in experiment [3] were below 1 µM, below 1 µM and below 10000 nM, respectively.
For `[2H]C([2H])(C1CC(F)(F)C1)n1cc(-c2cnn(CCF)c2)c2ncc(-c3c(C)noc3C)cc21` [P-0258, 4-[1-[dideuterio-(3,3-difluorocyclobutyl)methyl]-3-[1-(2-fluoroethyl)pyrazol-4-yl]pyrrolo[3,2-b]pyridin-6-yl]-3,5-dimethyl-isoxazole], the values for the IC50 in experiment [1], in experiment [2] and in experiment [3] were below 1 µM, below 1 µM and below 10000 nM, respectively.
As for `[2H]C([2H])(C1CC(F)(F)C1)n1cc(-c2cnc(C3CC3)nc2)c2ncc(-c3c(C)noc3C)cc21` [P-0259, 4-[3-(2-cyclopropylpyrimidin-5-yl)-1-[dideuterio-(3,3-difluorocyclobutyl)methyl]pyrrolo[3,2-b]pyridin-6-yl]-3,5-dimethyl-isoxazole], the results for the 50% inhibitory concentration (IC50) in experiment [1], in experiment [2] and in experiment [3] were below 1 µM, below 1 µM and below 10000 nM, respectively.
On to `Cc1noc(C)c1-c1cnc2c(-c3cnn(CCF)c3)cn(CC3(F)CCCCC3)c2c1` [P-0260, 4-[1-[(1-fluorocyclohexyl)methyl]-3-[1-(2-fluoroethyl)pyrazol-4-yl]pyrrolo[3,2-b]pyridin-6-yl]-3,5-dimethyl-isoxazole], for which the IC50 is below 1 µM in experiment [1], below 1 µM in experiment [2] and below 10000 nM in experiment [3].
`Cc1noc(C)c1-c1cnc2c(-c3cnn(C(F)F)c3)cn(CC3(F)CCC(O)CC3)c2c1` (stereo not shown) [P-0261, 4-[[3-[1-(difluoromethyl)pyrazol-4-yl]-6-(3,5-dimethylisoxazol-4-yl)pyrrolo[3,2-b]pyridin-1-yl]methyl]-4-fluoro-cyclohexanol]: the results for the IC50 in experiment [1], in experiment [2] and in experiment [3] were below 1 µM, below 1 µM and below 10000 nM, respectively.
For `Cc1noc(C)c1-c1cnc2c(Br)c[nH]c2c1` [P-0263, 4-(3-bromo-1H-pyrrolo[3,2-b]pyridin-6-yl)-3,5-dimethyl-isoxazole], the values for the half-inhibitory concentration (IC50) in experiment [1] and in experiment [3] were below 1 µM and below 10000 nM, respectively.
As to `Cc1cc(-c2cnc3ccn(CC4CCC(F)(F)CC4)c3c2)cnn1` [P-0286], the IC50 was below 1 µM in experiment [1], 10 to 200 µM in experiment [2] and below 10000 nM in experiment [3].
The corresponding values for `[2H]C([2H])(C1CCC(F)(F)CC1)n1cc(-c2cnco2)c2ncc(-c3c(C)noc3C)cc21` [P-0334, 4-[1-[dideuterio-(4,4-difluorocyclohexyl)methyl]-3-oxazol-5-yl-pyrrolo[3,2-b]pyridin-6-yl]-3,5-dimethyl-isoxazole] are below 1 µM, below 1 µM and below 10000 nM.
On to `[2H]C([2H])(C1CCC(F)(F)CC1)n1cc(-c2cn(C)nc2C)c2ncc(-c3c(C)noc3C)cc21` [P-0335, 4-[1-[dideuterio-(4,4-difluorocyclohexyl)methyl]-3-(1,3-dimethylpyrazol-4-yl)pyrrolo[3,2-b]pyridin-6-yl]-3,5-dimethyl-isoxazole], for which the half-inhibitory concentration (IC50) in experiment [1] was below 1 µM; in experiment [2], below 1 µM; in experiment [3] it was below 10000 nM.
For the compound `[2H]C([2H])(C1CCC(F)(F)CC1)n1cc(-c2cnn(CC)c2)c2ncc(-c3c(C)noc3C)cc21` [P-0336, 4-[1-[dideuterio-(4,4-difluorocyclohexyl)methyl]-3-(1-ethylpyrazol-4-yl)pyrrolo[3,2-b]pyridin-6-yl]-3,5-dimethyl-isoxazole], the IC50 in experiment [1] is below 1 µM; in experiment [2], below 1 µM; in experiment [3], below 10000 nM.
Regarding `[2H]C([2H])(C1CCC(F)(F)CC1)n1cc(-c2cn(C)nc2C(F)(F)F)c2ncc(-c3c(C)noc3C)cc21` [P-0337, 4-[1-[dideuterio-(4,4-difluorocyclohexyl)methyl]-3-[1-methyl-3-(trifluoromethyl)pyrazol-4-yl]pyrrolo[3,2-b]pyridin-6-yl]-3,5-dimethyl-isoxazole], the 50% inhibitory concentration (IC50) is below 1 µM in experiment [1], below 1 µM in experiment [2] and below 10000 nM in experiment [3].
Take `[2H]C([2H])(C1CCC(F)(F)CC1)n1cc(-c2cnn(C)c2C)c2ncc(-c3c(C)noc3C)cc21` [P-0338, 4-[1-[dideuterio-(4,4-difluorocyclohexyl)methyl]-3-(1,5-dimethylpyrazol-4-yl)pyrrolo[3,2-b]pyridin-6-yl]-3,5-dimethyl-isoxazole]: the IC50 in experiment [1] was below 1 µM; in experiment [2], below 1 µM; in experiment [3] it was below 10000 nM.
For `Cc1noc(C)c1-c1ccc2c(-c3cccc(CC(=O)O)c3)cn(C(c3ccccc3)c3ccccn3)c2c1` (stereo not shown) [P-1050, 2-[3-[6-(3,5-dimethylisoxazol-4-yl)-1-[phenyl(2-pyridyl)methyl]indol-3-yl]phenyl]acetic acid], the IC50 was below 1 µM in experiment [1] and below 1 µM in experiment [2] (MV-4-11, 3d growth).
